Measurements from ChEMBL document CHEMBL1130682, “A concise synthesis and in vitro cytotoxicity of new labdane diterpenes” (Bioorg Med Chem Lett, 1998).
Converted amounts (≈) assume the structure as drawn.

Columns and labels:
Format in all cases: functional, cell-based
B16 = experiment: In vitro cytotoxicity of compound was measured on murine melanoma (B16) cells.; conditions: Mus musculus
P388 = experiment: In vitro cytotoxicity of compound was measured on murine lymphocytic leukemia (P-388) cells.; conditions: Mus musculus
SNU1 = experiment: In vitro cytotoxicity of compound was measured on human gastric adenocarcinoma (SNU-1) cells.

SMILES	IC50 (B16) [µg/mL]	IC50 (P388) [µg/mL]	IC50 (SNU1) [µg/mL]
C=C1CC[C@H]2C(C)(C)CCC[C@]2(C)[C@H]1C/C=C(\CO)CCO	28.9 (≈ 94.3 µM)	6.3 (≈ 20.6 µM)	8.6 (≈ 28.1 µM)
C=C1CC[C@H]2C(C)(C)CCC[C@]2(C)[C@H]1CC(O)c1ccoc1 (some centres not stated)	47.2 (≈ 156 µM)	3.6 (≈ 11.9 µM)	3.9 (≈ 12.9 µM)
C=C[C@](C)(O)CC[C@@H]1[C@@]2(C)CCCC(C)(C)[C@@H]2CC[C@@]1(C)O [SCLAREOL]	28 (≈ 90.8 µM)	10.1 (≈ 32.7 µM)	11.9 (≈ 38.6 µM)
CO[C@@]12[C@H](COC(N)=O)C3=C(C(=O)C(C)=C(N)C3=O)N1C[C@@H]1N[C@@H]12 [MITOMYCIN]		0.06 (≈ 0.179 µM)	2.32 (≈ 6.94 µM)
COc1cccc2c1C(=O)c1c(O)c3c(c(O)c1C2=O)C[C@@](O)(C(=O)CO)C[C@@H]3O[C@H]1C[C@H](N)[C@H](O)[C@H](C)O1 [DOXORUBICIN]		0.09 (≈ 0.166 µM)	2.15 (≈ 3.96 µM)
CC(=O)O[C@]1(C)CC[C@H]2C(C)(C)CCC[C@]2(C)[C@H]1CC=O	31.9 (≈ 108 µM)	6.9 (≈ 23.4 µM)	4.8 (≈ 16.3 µM)
C=C1CC[C@H]2C(C)(C)CCC[C@]2(C)[C@H]1/C=C/c1ccoc1 [CORONARIN E]	18.8 (≈ 66.1 µM)	10 (≈ 35.2 µM)	8 (≈ 28.1 µM)
C=C1CC[C@H]2C(C)(C)CCC[C@]2(C)[C@H]1C/C=C1/CCOC1=O	7.5 (≈ 24.8 µM)	6.7 (≈ 22.2 µM)	19.2 (≈ 63.5 µM)
CC1(C)CCC[C@@]2(C)[C@H]1CCC1(CO1)[C@@H]2C/C=C1/CCOC1=O (some centres not stated)	84.5 (≈ 265 µM)	12.3 (≈ 38.6 µM)	15.7 (≈ 49.3 µM)
C=C1CC[C@H]2C(C)(C)CCC[C@]2(C)[C@H]1CC=O	30.8 (≈ 131 µM)	0.16 (≈ 0.683 µM)	3.9 (≈ 16.6 µM)
C=C1[C@H](O)C[C@H]2C(C)(C)CCC[C@]2(C)[C@H]1/C=C/c1ccoc1	27.3 (≈ 90.9 µM)	10.3 (≈ 34.3 µM)	4.8 (≈ 16 µM)
C=C1CC[C@H]2C(C)(C)CCC[C@]2(C)[C@H]1C/C=C(/C=O)CC=O	41.2 (≈ 136 µM)	4.1 (≈ 13.6 µM)	12 (≈ 39.7 µM)
CC(=O)O[C@]1(C)CC[C@H]2C(C)(C)CCC[C@]2(C)[C@H]1C/C=C1/CCOC1=O	11.3 (≈ 31.2 µM)	7.8 (≈ 21.5 µM)	12.3 (≈ 33.9 µM)
